One assay concerns CTGF. Put plainly: CTGF transcription by qPCR in RPE cells. It is filed as cell-based. As to conditions: 1 μM, TGF-β1, 6 h, 16 h and 24 h. The method, then: (§1) FIG. 3A: RPE cells were plated on fibronectin-coated glass coverslips, serum-starved for 16 hours, pretreated with 5Z-7-oxozeaenol (1 μM) or SB431542 (10 μM), or DMSO for 1 hour, then treated with or without TGF-β1 for 2 days. Following treatment, the cells were stained with rhodamine-phalloidin (actin fibers-red) and DAPI (blue) and visualized by confocal microscopy. Scale bars: […]. FIG. 3B: Serum-starved RPE cells pretreated with 5Z-7-oxozeaenol (1 μM) or DMSO for 1 hour, and were exposed to TGF-β as in FIG. 3A. Total RNA was extracted at each time point and qPCR was performed. Transcription levels of CTGF were determined after 6 h, 16 h and 24 h. Bars represent the specific mRNA amount relative to GAPDH mRNA in the same samples. All experiments were performed in triplicates. A representative histogram from two independent experiments is shown. FIG. 3C: RPE cells were plated and treated as in FIG. 3A. Following treatment, the cells were immunostained with E-cadherin antibodies (green) and DAPI (blue). Representative photographs of two independent experiments are shown. CTGF, an important stimulant of fibrosis, functions as a downstream mediator of TGF-β, stimulating cell proliferation and cell matrix deposition (He et al., Invest Ophthalmol Vis Sci 2008, 49:4078-4088). We examined the association between TGF-β1 and CTFG expression in RPE cells by Real Time PCR (FIG. 3B).

The next assay deals with RPE cells. Put plainly: Floating collagen matrix contraction assay in full serum. It is filed as cell-based. To be noted: 1 μM, full medium, 24 hours, control cells 50%. The method, then:
FIG. 5A: RPE cells were pre-treated with or without 5Z-7-oxozeaenol (1 μM) and seeded in collagen lattices in full medium. The experiments were performed in triplicates. Lattices were photo-documented after 24 hours and measured using Image-J software. […] Bars are Mean±SD. The transition of RPE cells to myofibroblasts is characterized, among other aspects, by increased contractile activity (Umazume et al., Invest Ophthalmol Vis Sci 2013, 54:1150-1159; Sakamoto et al., Curr Eye Res 1994, 13:451-459; West-Mays et al., Int J Biochem Cell Biol 2006, 38:1625-1631; Ma et al., Clinical & experimental ophthalmology 2012, 40:e76-86). To examine whether TAK1 is a general regulator of the EMT process affecting cell contractility, floating collagen matrix contraction assay was performed. The test was carried out in full serum with or without TAK1 inhibitor (FIGS. 5A and 5B). While in the control cells significant contraction was observed after 24 hours, reaching 50% of the initial size, TAK1 inhibition impaired the capacity of the cells to contract. The collagen lattice remained nearly 80% from the initial size (FIGS. 5A and B).

The next assay deals with c57Black mice. Nature of the assay: DSS-induced colitis in mice, fibrotic markers. It is filed as in vivo. As to conditions: DSS 1.5% eight days, IP 180 ng per animal daily. The method, then:
C57black mice were treated with dextran sodium sulfate (DSS)-S 1.5% diluted in water for eight days and with or without 5Z-7 (1 uM) was IP injected total 180 ng for each animal Daily. After eight days the mice underwent evaluation to detect abnormalities in the Colom structure. N=14 mice for each group, Student T-test was used to determine the p value. The chart in FIG. 13 compares known markers that are considered as the main morphological phenotype for colitis. […] C57black mice were treated with dextran sodium sulfate (DSS)-S 1.5% diluted in water for eight days and with or without 5Z-7 (1 uM) IP injected total 180 ng for each animal daily. After eight days the mice underwent evaluation to detect abnormalities in the colon structure. In mice treated with DSS all markers of fibrosis such as: granulation, Transparency, fibrin and blood vessels were elevated by the DSS.

The test system of another assay is E-cadherin. Put plainly: E-cadherin immunostaining in RPE cells. To be noted: 1 μM prior to TGF-β1 stimulation. It is filed as cell-based. The protocol:
as §1, with “A recent publication has shown that down-regulation” for “CTGF, an important stimulant”, “the cell-cell adhesion protein E-cadherin, was considered” for “fibrosis, functions as”, “hallmark” for “downstream mediator”, “EMT in RPE cells ([…]” for “TGF-β, stimulating cell proliferation and cell matrix deposition (He”, “2010, 51:2755-2763). […]” for “2008, 49:4078-4088). We examined the association between TGF-β1 and CTFG expression in RPE cells by Real Time PCR (FIG. 3B).”

A further assay deals with aortic ring explants. Put plainly: Aortic ring assay ex vivo. To be noted: aortic ring explants in Matrigel, 1 μM, 8 days. The method, then: FIG. 15: TAK1 regulates the fibrotic switch in aortic injury ex vivo. aortic ring explants were seeded in Matrigel with or without 5z-7 (1 μM) for 8 days and then photo-documented. The photographs shown are representative from one of three independent experiments (N=9). As can been in the control aortic ring explants there is growth of sprouts due to the injury/fibrotic process.

The test system of the next assay is Smad2/3. Nature of the assay: Smad2/3 phosphorylation by immuno-blot in HT29 colon cells. It is filed as cell-based. To be noted: HT29 Human colon cells, TGF-β treatment, versus untreated cells. The method, then:
(§2) FIG. 11. Inhibition of TAK1 abolishes the activation of TGF-β cascades in colon cells. TGF-β1 up-regulates-Smad 2/3 and p38 activation via TAK1 activity in colon cells. HT29 Human colon cells were treated with or without 5Z-7-oxozeaenol followed by TGF-β treatment. Smad2/3 and p38 phosphorylation patterns were examined by immuno-blots. HT29 Human colon cells were treated as in the previous examples with or without 5Z-7-oxozeaenol, followed by TGF-β treatment. Inhibition of TAK1 was assayed by observation of Smad2/3 and p38 phosphorylation patterns by immuno-blots.

Another assay deals with p38. Nature of the assay: p38 phosphorylation by immuno-blot in HT29 colon cells. It is filed as cell-based. To be noted: HT29 Human colon cells, TGF-β treatment, versus untreated cells. The protocol: as §2

With `COc1cc(O)c2c(c1)/C=C/C[C@H](O)[C@H](O)C(=O)/C=C\C[C@H](C)OC2=O` [5Z-7-oxozeaenol], the “levels of CTGF (mRNA relative to GAPDH)” value in the assay with CTGF was “gradually reduced the levels of CTGF”. In addition, the “collagen lattice area relative to initial size” value in the assay on RPE cells is on record as roughly 80%. In addition, the “fibrotic markers of colitis (granulation, Transparency, fibrin, blood vessels)” value in the assay with c57Black mice is “reduce the fibrotic markers”. Moreover, the “E-cadherin expression upon TGF-β1” value with E-cadherin is “allowing normal E-cadherin expression”. In addition, the “fibrotic effect resultant from the injury process (sprout growth)” value with aortic ring explants was “abolish the fibrotic effect”. In the assay with Smad2/3, the Smad2/3 phosphorylation result is “significantly inhibited”. In addition, the p38 phosphorylation entry in the assay with p38 was “significantly inhibited”.

The values are drawn from US10206900B2, “Treatments for fibrotic diseases” (MOR RESEARCH APPLICATIONS LTD., priority 2013, dated 2019).
